Measurements from ChEMBL document CHEMBL5725908, “Tricyclic DLK inhibitors and uses thereof” (2018).

Target: T1, Mitogen-activated protein kinase kinase kinase 12 (Homo sapiens, UniProt Q12852)
T1 sequence (Q12852 whole entry): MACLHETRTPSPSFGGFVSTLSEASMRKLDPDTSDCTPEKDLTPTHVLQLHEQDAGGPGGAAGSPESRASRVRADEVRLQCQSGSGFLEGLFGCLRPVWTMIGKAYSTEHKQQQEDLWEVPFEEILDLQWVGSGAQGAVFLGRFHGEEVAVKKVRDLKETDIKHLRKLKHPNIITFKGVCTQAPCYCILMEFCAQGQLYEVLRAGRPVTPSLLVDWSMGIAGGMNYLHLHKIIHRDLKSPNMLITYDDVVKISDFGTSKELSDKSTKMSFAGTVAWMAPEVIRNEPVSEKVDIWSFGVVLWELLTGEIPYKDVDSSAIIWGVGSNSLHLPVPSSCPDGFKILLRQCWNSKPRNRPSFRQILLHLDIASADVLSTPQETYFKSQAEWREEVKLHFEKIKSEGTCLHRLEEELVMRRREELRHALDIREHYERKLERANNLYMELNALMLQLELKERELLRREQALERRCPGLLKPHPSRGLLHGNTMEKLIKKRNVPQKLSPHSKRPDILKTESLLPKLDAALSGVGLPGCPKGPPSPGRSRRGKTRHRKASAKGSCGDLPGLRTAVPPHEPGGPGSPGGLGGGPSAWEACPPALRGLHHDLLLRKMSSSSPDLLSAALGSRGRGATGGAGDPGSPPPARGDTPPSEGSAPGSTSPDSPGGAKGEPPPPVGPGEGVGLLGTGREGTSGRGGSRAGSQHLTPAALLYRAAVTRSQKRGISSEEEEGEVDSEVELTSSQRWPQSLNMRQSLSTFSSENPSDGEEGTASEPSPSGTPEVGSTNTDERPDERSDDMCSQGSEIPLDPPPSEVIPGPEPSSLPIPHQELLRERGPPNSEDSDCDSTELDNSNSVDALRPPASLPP
Test: DLK TR-FRET Inhibition Assay: DLK kinase reactions (20 μL) containing 5 nM N-terminally GST-tagged DLK (catalytic domain amino acid 1-520) (Carna Bioscience), 40 nM N-terminally HIS tagged MKK4 K131M substrate, and 30 μM ATP in kinase reaction buffer (50 mM HEPES, pH 7.5, 0.01% Triton X-100, 0.01% Bovine γ-Globulins, 2 mM DTT, 10 mM MgCl2 and 1 mM EGTA), and testing compound 1:3 serial diluted starting at 20 uM were incubated at ambient temperature for 60 minutes in 384 well OptiPlate (Perkin Elmer). To quench kinase reactions and detect phosphorylated MKK4, 15 μL of TR-FRET antibody mixture containing 2 nM anti-phosphorylated MKK4 labeled with Europium cryptate (Cisbio) and 23 nM anti-HIS labeled with D2 (Cisbio) in detection buffer (25 mM Tris pH 7.5, 100 mM NaCl, 100 mM EDTA, 0.01% Tween-20, and 200 mM KF) was added to the reaction mixture. The detection mixture was incubated for 3 hours at ambient temperature and the TR-FRET was detected with an EnVision multilabel plate reader (Perkin-Elmer) using the LANCE/DELFIA Dual Enh label from Perkin-Elmer (excitation filter: UV2 (TRF) 320 and emission filters: APC 665 and Europium 615).

SMILES: Cc1c[nH]c2ncc(-c3nc(N4CC5COCC5C4)c4nc5n(c4n3)CCOC5(C)C)cc12 (centres undefined)
- Ki: 46.3 nM

SMILES: CC1(C)OCCn2c1nc1c(N3CC4COCC4C3)nc(-c3cnc(N)nc3)nc12 (centres undefined)
- Ki: 995 nM

SMILES: COC1C2CCC1N(c1nc(-c3cnc(N)nc3)nc3c1nc1n3CCOC1(C)C)C2 (centres undefined)
- Ki: 223 nM

SMILES: CC(C)n1nccc1-c1nc(-c2cnc(N)nc2)nc2c1nc1n2CCOC1(C)C
- Ki: 1400 nM
